Data: patent US20040214762A1, “Use of inhibitors of proline endopeptidase to modulate inositol (1,4,5) triphosphate concentration dependent on intracellular signal cascades” (priority 2001, published 2004)

Tests used:
[1] = target: T1, purified recombinant human prolyl endopeptidase (Homo sapiens, UniProt P48147); test: Determination of IC50 with Z-Gly-Pro-AMC; type: biochemical; conditions: Z-Gly-Pro-AMC 10 μM, 37° C., 60 min
T1 sequence (P48147 1-710): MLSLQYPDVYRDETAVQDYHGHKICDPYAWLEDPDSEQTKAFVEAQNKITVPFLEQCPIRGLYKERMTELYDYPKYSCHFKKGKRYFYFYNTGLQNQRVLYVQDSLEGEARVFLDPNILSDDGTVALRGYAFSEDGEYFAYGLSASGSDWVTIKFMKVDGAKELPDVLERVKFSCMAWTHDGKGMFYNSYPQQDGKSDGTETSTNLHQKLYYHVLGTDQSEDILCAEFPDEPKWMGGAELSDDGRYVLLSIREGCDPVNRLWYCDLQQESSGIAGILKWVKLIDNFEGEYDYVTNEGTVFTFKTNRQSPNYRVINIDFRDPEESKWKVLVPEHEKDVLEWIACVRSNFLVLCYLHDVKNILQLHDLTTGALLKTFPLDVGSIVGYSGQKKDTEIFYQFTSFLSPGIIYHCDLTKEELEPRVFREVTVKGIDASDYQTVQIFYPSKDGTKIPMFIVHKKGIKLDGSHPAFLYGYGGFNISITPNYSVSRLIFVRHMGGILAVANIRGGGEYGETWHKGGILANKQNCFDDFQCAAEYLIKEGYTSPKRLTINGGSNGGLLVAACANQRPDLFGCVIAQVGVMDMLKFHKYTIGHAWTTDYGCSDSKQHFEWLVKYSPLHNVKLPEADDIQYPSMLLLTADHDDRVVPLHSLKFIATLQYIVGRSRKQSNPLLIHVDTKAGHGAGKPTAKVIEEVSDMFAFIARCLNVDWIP
Method: 100 μl inhibitor stock solution were mixed with 100 μl buffer (EPES pH7.6) and 50 μl substrate (Z-Gly-Pro-AMC, final concentration 10 μM). Reaction was started by addition of 20 μl purified recombinant human prolyl endopeptidase. Fluorescence measurement was performed at 37° C. and λexiatation=380 nm, λemission=465 nm for 60 min using a plate reader (HTS7000plus, Applied Biosystems, Weiterstadt, Germany). The final inhibitor concentrations ranged between 1 pM and 10 μM. For calculation of the IC50 value Prism 3″ (Graphpad) was used. The IC50-value of Benzyl-N-[1-(cyclopentylcarbonyl)-2-methylbutyl]carbamate was calculated as of IC50=8,91*10^−7 M

[2] = tested on: IP3 concentration in U343 cells; test: IP3 concentration in U343 cells treated with PEP inhibitor (isotope dilution method); type: cell-based, human
Method: (§1) To characterize the intracellular function of PEP, the IP3 concentration in the antisense cell lines Was measured. Cells were grown in 25 cm^2 culture flasks to nearly 100% confluence. IP3 concentration was determined by an isotope dilution method (Amersham Phamacia Biotech) using 0.5×10^6 cells per measurement. To inhibit intracellular PEP, the cells were washed twice with PBS and incubated for 4 hours in Optimem 1 medium (GIBCO BRL) supplemented with 5 μM PEP-inhibitor Fmoc-alanyl-pyrroline-2-nitrile (Fmoc-Ala-Pyrr-CN). All measurements were done in quadruplicate. The calculation of IP3 concentration and the statistical analysis (t-test) were performed using Prism 3.0 (Graph Pad Software).
To use an alternative approach suppressing PEP activity in U343 cells, the cells were incubated for 3 hours in presence of the specific inhibitor Fmoc-Ala-Pyrr-CN (5 μM). The influence of DMSO, necessary for dissolving the inhibitor, was excluded by adding the same amount (0.05%) of DMSO to the media of control cells. […] However, the observed changes in IP3 concentration were only 0.16 pmol/10^6 cells. This is much lower than the observed change on IP3 concentration in cell line as-11 still having 30% remaining PEP activity, and calls into question the correlation between PEP activity and IP3 concentration. […] Moreover, the lower concentration of IP3 measured after 24 hours reflects the slight recovery of PEP activity at that time point. The total amount of IP3 after 12 hours (1.69±0.1) pmol/10^6 cells; n=4) is higher than the concentration measured in cell line as-11 (0.9±0.07 pmol/10^6 cells; n=4), displaying 30% remaining enzyme activity.

PEP [3] = target: T2, PEP (Homo sapiens, UniProt P48147); test: Ki against recombinant human PEP; type: biochemical; conditions: data not shown
T2 sequence (P48147 1-710): T1 sequence (P48147 1-710)
Method: (§2) Two different approaches were chosen to influence the intracellular activity of PEP in U343 cells. Fmoc-Ala-Pyrr-CN is a potent and specific inhibitor for PEP (9), with an observed Ki value of 70 pM against recombinant human PEP (data not shown). It has been shown that this inhibitor is able to penetrate the cell membrane and inhibit PEP intracellularly (10). […] This inhibition is observed for up to 12 hours without adding fresh inhibitor. In addition, a totally different approach of reducing PEP activity was employed by generating antisense cell lines displaying reduced expression of the target enzyme.

[4] = tested on: IP3 concentration in U343 cells; test: IP3 concentration in U343 cells after stimulation by substance P; type: cell-based, human; conditions: for difference in IP3 concentration by inhibition: 5 μM inhibitor 12 hours
Method: as §1, with “To inhibit intracellular PEP, the cells were washed twice with PBS and incubated for 4 hours in Optimem 1 medium (GIBCO BRL) supplemented with 5 μM PEP-inhibitor Fmoc-alanyl-pyrroline-2-nitrile (Fmoc-Ala-Pyrr-CN).” left out
Wild-type and PEP antisense U343 cell lines were cultured in duplicate in 21 cm^2 culture dishes (Greiner) until confluence. Prior to stimulation the cells were washed twice in PBS and preincubated for 10 h in Optimem1 medium containing 1.6 μg/ml leupeptin (Sigma), 0.86 μg/ml chymostatin (Sigma), and 40 μg/ml bacitracin (Sigma) at 37° C. and 5% CO2. Substance P (Bachem) was added to obtain a final concentration of 1×10^−6 M and the incubation was stopped at the indicated time by rapidly aspirating the medium and adding of 0.4 ml ice cold trichloric acid. Preparation of samples and measurement of IP3 concentration were performed as described above.

[5] = target: T3, intracellular PEP activity (Homo sapiens, UniProt P48147); test: Inhibition of intracellular PEP activity in U343 cells (Z-Gly-Pro-NHMec); type: cell-based
T3 construct: endogenous in cells; host or cells: U343 human astro glioma cells (wild type)
T3 sequence (P48147 1-710): T1 sequence (P48147 1-710)
Method: as §2
For the determination of PEP activity, U343 wild-type and PEP antisense cells (1×10^7) were harvested by washing twice in phosphate buffered saline (GIBCO BRL) and resuspended in 200 μl assay buffer (50 mM HEPES pH 7.5; 200 mM NaCl; 1 mM EDTA; 1 mM DTT). […] The protein concentration in the supernatant was determined according to the method of Bradford (5). PEP activity was measured in assay buffer using the fluorogenic substrate Z-Gly-Pro-NHMec (10 μM) (Bachem) on a Kontron spectrofluorometer SFM 25 (excitation 380, emission 460) equipped with a four-cell changer and controlled by an IBM-compatible personal computer. The obtained data were analyzed with the software Flucol (6).

PEP [6] = target: T2, PEP; test: Degradation of substance P in serum free medium of U343 cells (MALDI-TOF MS); type: in vitro ADME; parameters: endogenous in cells; host or cells: U343 human astro glioma cells (wild type); conditions: serum free Optimem1 medium of U343 cells, 10 min; data not shown
Method: Using RT-PCR, the occurrence of substance P specific neurokinin receptors (NK-R) in U343 cells was investigated. PCR products could be obtained for two receptors displaying an appropriate size (FIG. 5). […] Being aware that substance P is an excellent in vitro substrate for PEP, we investigated potential degradation of substance P during the incubation time in the serum free Optimem1 medium of U343 cells by MALDI-TOF MS analysis. […] This is in agreement with the fact that no PEP activity is measurable in the medium (FIG. 6).

Compound: CCC(C)C(NC(=O)OCc1ccccc1)C(=O)C1CCCC1 (stereo not shown) [Benzyl-N-[1-(cyclopentylcarbonyl)-2-methylbutyl]carbamate]
- IC50 [1]: 891 nM

Compound: Fmoc-alanyl-pyrroline-2-nitrile [Fmoc-Ala-Pyrr-CN]
- change in IP3 concentration ([2]; 5 μM, 3 hours incubation): 0.16 pmol/10^6 cells
- total amount of IP3 ([2]; 5 μM, after 12 hours total inhibition, n=4): 1.69±0.1 pmol/10^6 cells
- time to maximum IP3 concentration ([2]; single treatment 5 μM): 12 h
- Ki (PEP [3]): 0.07 nM
- difference in IP3 concentration by inhibition ([4]; U343 cells stimulated with 1 μM substance P 5 sec): 7.9 pmol/10^6 cells
- kinetic profile of IP3 stimulation by substance P, inhibitor treated vs control cells ([4]; U343 wild-type cells, 5 μM for 12 hours, 1 μM substance P): slight increased, but similar pattern
- proportional difference in IP3 concentration by inhibition ([4]; non stimulated U343 cells): 5.5 fold
- difference in IP3 concentration by inhibition ([4]; non stimulated U343 cells): 1.7 pmol/10^6 cells
- proportional difference in IP3 concentration by inhibition ([4]; substance P stimulated U343 cells): 1.7 fold
- duration of inhibition without adding fresh inhibitor ([5]; 5 μM): up to 12 hours
- inhibition of intracellular PEP activity ([5]; 5 μM in medium): total inhibition

Compound: substance P: neuropeptide (Bachem), peptide hormone used to stimulate U343 cells
- time of maximum IP3 concentration after stimulation ([4]; U343 wild-type untreated or inhibitor treated and as-2 cells, 1 μM substance P): 5 s
- rise of IP3 concentration by substance P stimulation ([4]; wild-type U343 cells, 1 μM substance P, 5 sec): about 14 fold
- IP3 concentration after substance P stimulation ([4]; wild-type U343 cells, 1 μM substance P, 5 sec, n=4): 5.4±0.49 pmol/10^6 cells
- PEP specific degradation (PEP [6]): no PEP specific degradation was observed
